According to publication PMC4207550 (Drug Design, Development and Therapy, 2014):

Legend:
Type in all cases: biochemical
[1] = molecular target: human recombinant butyrylcholinesterase (hBuChE) (Homo sapiens, UniProt P06276); experiment: Inhibition of hBuChE, Ellman method
[2] = molecular target: human recombinant acetylcholinesterase (hAChE) (Homo sapiens, UniProt P22303); experiment: Inhibition of hAChE, Ellman method
human recombinant MAO B [3] = molecular target: T1, human recombinant MAO B (Homo sapiens, UniProt P27338); experiment: Time-dependent inhibition of human recombinant MAO B; conditions: pre-incubation times 15–60 minutes
T1 sequence (P27338 1-520): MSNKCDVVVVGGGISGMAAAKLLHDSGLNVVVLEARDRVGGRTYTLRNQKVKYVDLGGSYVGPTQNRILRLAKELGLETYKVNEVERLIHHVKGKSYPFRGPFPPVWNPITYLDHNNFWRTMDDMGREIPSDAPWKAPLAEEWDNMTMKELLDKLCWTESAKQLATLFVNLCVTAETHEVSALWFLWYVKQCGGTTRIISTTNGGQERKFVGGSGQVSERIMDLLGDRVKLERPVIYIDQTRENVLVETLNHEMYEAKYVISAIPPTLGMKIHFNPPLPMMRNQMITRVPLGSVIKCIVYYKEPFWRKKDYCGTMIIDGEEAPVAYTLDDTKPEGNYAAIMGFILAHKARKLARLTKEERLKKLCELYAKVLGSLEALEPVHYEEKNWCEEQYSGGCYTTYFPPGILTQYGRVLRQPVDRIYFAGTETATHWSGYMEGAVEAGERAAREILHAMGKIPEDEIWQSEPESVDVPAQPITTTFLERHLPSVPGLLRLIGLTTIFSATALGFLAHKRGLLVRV

human recombinant MAO B [4] = molecular target: T1, human recombinant MAO B; experiment: Test of reversibility of inhibition of human recombinant MAO B

human recombinant butyrylcholinesterase (hBuChE), sequence (P06276 29-602): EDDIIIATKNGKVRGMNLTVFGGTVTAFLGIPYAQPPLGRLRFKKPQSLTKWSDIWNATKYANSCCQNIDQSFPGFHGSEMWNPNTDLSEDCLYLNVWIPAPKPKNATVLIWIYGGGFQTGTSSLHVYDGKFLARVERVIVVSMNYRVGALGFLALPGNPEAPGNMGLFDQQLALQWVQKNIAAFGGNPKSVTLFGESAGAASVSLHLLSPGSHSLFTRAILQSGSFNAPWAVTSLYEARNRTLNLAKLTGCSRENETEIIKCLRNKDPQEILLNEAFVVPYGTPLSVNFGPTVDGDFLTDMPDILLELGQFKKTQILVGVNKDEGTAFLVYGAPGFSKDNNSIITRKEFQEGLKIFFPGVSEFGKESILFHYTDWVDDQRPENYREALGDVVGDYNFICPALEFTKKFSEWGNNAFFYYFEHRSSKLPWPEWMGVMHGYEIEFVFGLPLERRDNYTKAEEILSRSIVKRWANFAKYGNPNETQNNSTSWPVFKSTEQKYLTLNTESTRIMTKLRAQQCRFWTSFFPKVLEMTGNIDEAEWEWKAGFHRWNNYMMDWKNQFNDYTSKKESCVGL
human recombinant acetylcholinesterase (hAChE), sequence (P22303 32-614): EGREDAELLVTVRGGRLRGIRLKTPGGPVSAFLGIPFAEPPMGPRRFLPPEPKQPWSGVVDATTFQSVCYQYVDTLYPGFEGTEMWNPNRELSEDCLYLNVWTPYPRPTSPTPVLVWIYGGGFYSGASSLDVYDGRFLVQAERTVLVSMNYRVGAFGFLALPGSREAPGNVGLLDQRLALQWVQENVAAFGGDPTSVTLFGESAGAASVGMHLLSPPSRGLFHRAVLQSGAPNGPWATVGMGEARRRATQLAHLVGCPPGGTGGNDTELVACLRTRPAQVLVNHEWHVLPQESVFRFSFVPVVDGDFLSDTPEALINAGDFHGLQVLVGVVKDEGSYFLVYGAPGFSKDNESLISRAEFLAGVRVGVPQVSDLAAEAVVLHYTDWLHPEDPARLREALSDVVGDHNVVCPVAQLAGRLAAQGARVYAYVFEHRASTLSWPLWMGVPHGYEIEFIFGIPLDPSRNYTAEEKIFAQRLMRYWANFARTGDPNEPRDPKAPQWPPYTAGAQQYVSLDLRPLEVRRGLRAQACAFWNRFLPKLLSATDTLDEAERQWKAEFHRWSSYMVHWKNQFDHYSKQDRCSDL

| SMILES | IC50 [1] | IC50 [2] | time dependence of hMAO B inhibition (human recombinant MAO B [3]) | reversibility of hMAO B inhibition (human recombinant MAO B [4]; 50 μM, after 100-fold dilution with 1 mM tyramine) | inhibition at 50 µM (human recombinant MAO B [4]; read-out: initial MAO B inhibition) | fold more active than donepezil for the inhibition of hAChE ([2]; vs donepezil) | fold more potent than donepezil for hBuChE ([1]; vs donepezil) |
| --- | --- | --- | --- | --- | --- | --- | --- |
| C#CCNc1nc(NCCCCC2CCN(Cc3ccccc3)CC2)c(C#N)c(-c2ccccc2)c1C#N [DPH12] | 770 ± 140 nM |  |  |  |  |  |  |
| C#CCN(C)c1nc(NCCCCC2CCN(Cc3ccccc3)CC2)c(C#N)cc1C#N [DPH14] | 835 ± 139 nM | 13.1 ± 2.1 nM | time-dependent inhibition | irreversible | 55% |  |  |
| C#CCNc1nc(NCCCCC2CCN(Cc3ccccc3)CC2)c(C#N)cc1C#N [DPH16] | 790 ± 110 nM |  |  |  |  | 3.1 fold | 9.2 fold |
| C#CCN(C)c1nc(NCCCCC2CCN(Cc3ccccc3)CC2)c(C#N)c(-c2ccccc2)c1C#N [DPH9] | 1190 nM |  |  |  |  |  |  |
